{
  "source": "patent US20100234278A1",
  "about": "“PROPHYLACTIC AND/OR THERAPEUTIC AGENTS FOR PERIPHERAL NEUROPATHY” (priority 2006, published 2010)",
  "key": {"[1]": {"tested_on": "taxotere-induced peripheral neuropathy model mice", "test": "Evaluation of neurological symptoms in taxotere-induced peripheral neuropathy model", "assay_type": "in vivo, ICR mice", "description": "ICR mice (male) were purchased at 5 weeks of age and handled for 1 week before use in the experiment.\nAs an anticancer agent, taxotere (Taxotere injection, Aventis Pharma, 1V 80 mg 2 mL) was used.\nUsing the attached solution and physiological saline, taxotere was adjusted to a volume of about 0.15 ml per 10 g mouse body weight (45 mg/kg iv, 90 mg/kg ip). The vehicle serving as a control (0 mg/kg) was prepared in the same manner using Tween-80 and physiological saline for iv administration.\nOn the other hand, recombinant human EPO under the trade name Epogin (Chugai Pharmaceutical Co., Ltd., Japan) was adjusted using a solution (containing […] NaCl, 0.125% histidine-HCl and 0.005% Tween 80 in 10 mmol/L phosphate buffer (pH 6.0)) and administered at 720 U/head/week. The administration schedule was as follows: taxotere was given at 0 or 45 mg/kg iv (via the tail vein) or at 90 mg/kg ip, once a week for 3 weeks (3 times in total on days 0, 7 and 14), while the vehicle and EPO (720 U/head) were each given sc (into the dorsal neck region) 3 hours before taxotere treatment.\nContinuous treatment with taxotere will induce typical hind leg crossing in mice when hanged by their tails. If the symptoms reach an advanced stage, the same crossing response will also occur in the forelegs, thereby leading to dysbasia. Such a symptom was used as an indicator to evaluate the mice as follows: 0=no symptom; 0.5=abnormal movement without clear flexion; 1=flexion in one hind leg; 2=hind leg flexion or extension lasting for 2 seconds or longer; 3=dysbasia. Scoring was accomplished by blind evaluation of symptoms."}, "sciatic nerve axons": {"tested_on": "sciatic nerve axons", "test": "Histopathological evaluation of sciatic nerves (toluidine blue staining)", "assay_type": "in vivo, ICR mice", "description": "ICR mice (male) were purchased at 5 weeks of age and handled for 1 week before use in the experiment. As an anticancer agent, taxotere (Taxotere injection, Aventis Pharma, 1V 80 mg 2 mL) was used. […] The vehicle serving as a control (0 mg/kg) was prepared in the same manner using Tween-80 and physiological saline for iv administration. On the other hand, recombinant human EPO under the trade name Epogin (Chugai Pharmaceutical Co., Ltd., Japan) was adjusted using a solution (containing […] NaCl, 0.125% histidine-HCl and 0.005% Tween 80 in 10 mmol/L phosphate buffer (pH 6.0)) and administered at 720 U/head/week. The administration schedule was as follows: […], once a week for 3 weeks (3 times in total on days 0, 7 and 14), while the vehicle and EPO (720 U/head) were each given sc (into the dorsal neck region) 3 hours before taxotere treatment. Muscle tissue was peeled off to expose sciatic nerves. Under this state, a glutaraldehyde fixing solution (stored on ice immediately before use) was added to immerse all the sciatic nerves. After incubation for 10 minutes, the sciatic nerves were isolated and gently shaken for 1 hour in a shaker containing a glutaraldehyde fixing solution. The sciatic nerves were then embedded in a standard manner into a resin for electron microscopic examination. Toluidine blue-stained sections were prepared and evaluated for the degree of axonal degeneration at three levels: none (−), mild (+) and moderate (++)."}, "[2]": {"tested_on": "cisplatin-treated cancer patients", "settings": "EPO-treated group (Mangiameli et al., 2002); cited from earlier work"}, "[3]": {"tested_on": "DRG (dorsal root ganglia)", "settings": "caused by addition of HIV envelop glycoprotein gp120 (Keswanai et al., 2004); cited from earlier work"}, "[4]": {"tested_on": "streptozotocin-induced diabetes model rats", "settings": "streptozotocin-induced diabetes model rats (Bianchi et al., 2004); cited from earlier work"}, "[5]": {"settings": "taxotere 90 mg/kg ip group (vehicle)"}},
  "note": "Entries after “also recorded” stand apart in the source; their conditions may differ.",
  "data": [
    {"compound": "CC(=O)O[C@@]12CO[C@@H]1C[C@H](O)[C@@]1(C)C(=O)[C@H](O)C3=C(C)[C@@H](OC(=O)[C@H](O)[C@@H](NC(=O)OC(C)(C)C)c4ccccc4)C[C@@](O)([C@@H](OC(=O)c4ccccc4)[C@H]21)C3(C)C", "note": "[taxotere]", "values": [
      {"measurement": "Time at which neurological symptoms developed after the treatment", "setting": "[1]; taxotere 45 mg/kg iv once a week", "value": "around 8 days"},
      {"measurement": "Time at which neurological symptoms developed after the treatment", "setting": "[1]; taxotere 90 mg/kg ip once a week", "value": "around 8 days"},
      {"measurement": "Histological change of sciatic nerve axons, in words", "setting": "sciatic nerve axons; groups receiving taxotere", "value": "diameter reduction and deformation of axons, which were indicative of clear axonal degeneration"},
      {"measurement": "Degree of axonal degeneration: number of animals at mild (+)", "setting": "sciatic nerve axons; [5]", "value": 1},
      {"measurement": "Degree of axonal degeneration: number of animals at moderate (++)", "setting": "sciatic nerve axons; [5]", "value": 3},
      {"measurement": "Degree of axonal degeneration: number of animals at ±", "setting": "sciatic nerve axons; [5]", "value": 3}
    ]},
    {"compound": "erythropoietin [EPO]", "values": [
      {"measurement": "Effect on neurological symptoms", "setting": "[1]; neuropathy induced by taxotere 90 mg/kg ip, EPO 720 U/head sc, after 10 days (FIG. 2)", "value": "reduce significantly the neurological symptoms; also recorded: tended to suppress exacerbation of neurological symptoms"},
      {"measurement": "Degeneration levels of sciatic nerve axons, range of the group", "setting": "sciatic nerve axons; EPO group upon taxotere 90 mg/kg ip treatment", "value": "± to mild (+)"},
      {"measurement": "Effect on axonal degeneration of sciatic nerves, in words", "setting": "sciatic nerve axons; EPO versus vehicle, taxotere 90 mg/kg ip", "value": "tendency to alleviate neuropathy; also recorded: tended to suppress exacerbation"},
      {"measurement": "Neurological symptom scores", "setting": "[2]", "value": "significantly improved"},
      {"measurement": "Cell loss in DRG", "setting": "[3]", "value": "prevents cell loss in DRG"},
      {"measurement": "Pain", "setting": "[4]", "value": "improves"},
      {"measurement": "Reduced nerve conduction velocity", "setting": "[4]", "value": "improves reduced nerve conduction velocity"}
    ]}
  ]
}
